Measured values reported in patent US10829501B2 (BRISTOL-MYERS SQUIBB COMPANY, priority 2016, dated 2020).
Structures can show the parent of a compound that is named as a salt.

These compounds were tested against ROCK2 (Homo sapiens, UniProt O75116) (assay: ROCK2 kinase inhibition assay (LABCHIP 3000 Reader, FITC peptide substrate)). Settings: not given.
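Note: rho kinase reaction read by separating phosphorylated from unphosphorylated peptide on chip, with inhibition of kinase activity computed per concentration across a dose-response series.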

Sequence of ROCK2 (O75116 whole entry, species assumed): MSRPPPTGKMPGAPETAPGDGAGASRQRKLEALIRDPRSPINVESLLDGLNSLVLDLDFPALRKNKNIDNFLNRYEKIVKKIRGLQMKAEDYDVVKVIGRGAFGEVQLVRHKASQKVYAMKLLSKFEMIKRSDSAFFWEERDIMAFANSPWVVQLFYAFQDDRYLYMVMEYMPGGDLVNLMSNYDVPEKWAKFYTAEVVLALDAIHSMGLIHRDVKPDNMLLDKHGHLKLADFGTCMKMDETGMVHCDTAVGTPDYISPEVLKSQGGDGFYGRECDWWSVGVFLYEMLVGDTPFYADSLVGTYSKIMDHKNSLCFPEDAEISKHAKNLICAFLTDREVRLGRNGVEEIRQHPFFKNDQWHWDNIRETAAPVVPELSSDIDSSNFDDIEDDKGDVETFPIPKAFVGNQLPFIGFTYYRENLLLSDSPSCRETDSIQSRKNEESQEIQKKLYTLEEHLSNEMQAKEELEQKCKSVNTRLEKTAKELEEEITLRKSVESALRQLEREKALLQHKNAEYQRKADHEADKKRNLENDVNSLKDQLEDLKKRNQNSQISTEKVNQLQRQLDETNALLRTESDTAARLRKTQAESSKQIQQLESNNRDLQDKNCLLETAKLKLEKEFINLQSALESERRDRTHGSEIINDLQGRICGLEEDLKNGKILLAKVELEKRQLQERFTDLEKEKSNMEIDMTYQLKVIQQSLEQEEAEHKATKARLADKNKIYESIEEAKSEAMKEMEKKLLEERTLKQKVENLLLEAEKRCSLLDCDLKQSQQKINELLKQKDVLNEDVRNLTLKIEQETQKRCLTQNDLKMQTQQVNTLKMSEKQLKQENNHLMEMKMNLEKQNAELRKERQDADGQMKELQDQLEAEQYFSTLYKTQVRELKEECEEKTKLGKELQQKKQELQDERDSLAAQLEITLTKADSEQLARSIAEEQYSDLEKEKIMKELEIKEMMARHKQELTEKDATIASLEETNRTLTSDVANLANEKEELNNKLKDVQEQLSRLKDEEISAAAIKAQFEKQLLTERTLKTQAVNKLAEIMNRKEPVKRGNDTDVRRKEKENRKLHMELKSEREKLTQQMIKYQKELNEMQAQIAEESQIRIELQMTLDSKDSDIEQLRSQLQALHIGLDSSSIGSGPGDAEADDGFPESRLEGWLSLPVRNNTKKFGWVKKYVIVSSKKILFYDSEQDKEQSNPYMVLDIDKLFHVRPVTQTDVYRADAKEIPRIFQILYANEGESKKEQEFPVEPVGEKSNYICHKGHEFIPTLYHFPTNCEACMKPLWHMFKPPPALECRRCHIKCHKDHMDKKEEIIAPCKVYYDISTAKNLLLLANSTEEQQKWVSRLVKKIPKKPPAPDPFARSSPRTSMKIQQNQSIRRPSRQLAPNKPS

Compound | IC50 [µM]
COc1ccc2c(c1)CCN2C(=O)NC1CC2(C1)CC(Oc1ncccc1C(N)=O)C2 [Example 17, N-((aR)-6-((3-carbamoylpyridin-2-yl)oxy)spiro[3.3]heptan-2-yl)-5-methoxyindoline-1-carboxamide] | 0.05 to 0.25
CC(C)(O)COc1ccc2c(C(=O)NC3CC4(C3)CC(Oc3cc(C5CC5)ccc3C(N)=O)C4)cnn2c1C1CC1 (stereo not drawn) [Example 274, N-(6-(2-carbamoyl-5-cyclopropylphenoxy)spiro[3.3]heptan-2-yl)-7-cyclopropyl-6-(2-hydroxy-2-methylpropoxy)pyrazolo[1,5-a]pyridine-3-carboxamide] | < 0.005
CC(C)(O)COc1ccc2c(C(=O)NC3CC4(C3)CC(Oc3ncccc3C(N)=O)C4)cnn2c1 (stereo not drawn) [Example 6, N-(6-((3-carbamoylpyridin-2-yl)oxy)spiro[3.3]heptan-2-yl)-6-(2-hydroxy-2-methylpropoxy)pyrazolo[1,5-a]pyridine-3-carboxamide] | < 0.005
CS(=O)(=O)c1ccccc1-c1cc(C#N)cc(C(=O)N[C@H]2CC3(C2)C[C@H](Oc2ncccc2C(N)=O)C3)c1 (stereo partly drawn) [Example 196, 2-(((aR)-6-(5-cyano-2′-(methylsulfonyl)-[1,1′-biphenyl]-3-ylcarboxamido)spiro[3.3]heptan-2-yl)oxy)nicotinamide] | < 0.005
NC(=O)c1ccccc1O[C@H]1CC2(C[C@H](NC(=O)c3cnn4cc(OCCN5CCCC5)ccc34)C2)C1 (stereo partly drawn) [Example 21, N-[(aR)-6-(2-carbamoylphenoxy)spiro[3.3]heptan-2-yl]-6-[2-(pyrrolidin-1-yl)ethoxy]pyrazolo[1,5-a]pyridine-3-carboxamide] | 0.005 to 0.05
N#Cc1cc(C(=O)N[C@H]2CC3(C2)C[C@H](Oc2ncccc2C(N)=O)C3)cc(-c2ccc3c(c2)CCC(=O)N3)c1 (stereo partly drawn) [Example 189, 2-((aR)-6-(3-cyano-5-(2-oxo-1,2,3,4-tetrahydroquinolin-6-yl)benzamido)spiro[3.3]heptan-2-yl)oxy)nicotinamide, trifluoroacetate] | < 0.005
N#Cc1cccc(-c2ncc(C(=O)NC3CC4(C3)CC(Oc3ncccc3C(N)=O)C4)s2)c1 [Example 420, N-((aR)-6-((3-carbamoylpyridin-2-yl)oxy)spiro[3.3]heptan-2-yl)-2-(3-cyanophenyl)thiazole-5-carboxamide, TFA] | 0.005 to 0.05
NC(=O)c1cccnc1OC1CC2(CC(NC(=O)c3nnc4cc(N5CCOCC5)ccn34)C2)C1 [Example 179, N-((aR)-6-((3-carbamoylpyridin-2-yl)oxy)spiro[3.3]heptan-2-yl)-7-morpholino-[1,2,4] triazolo[4,3-a]pyridine-3-carboxamide] | 0.005 to 0.05
CC(C)(O)COc1ccc2c(C(=O)NC3CC4(C3)CC(Oc3cc(-c5cccc(N)n5)ccc3C(N)=O)C4)cnn2c1 (stereo not drawn) [Example 236, N-(6-(5-(6-aminopyridin-2-yl)-2-carbamoylphenoxy)spiro[3.3]heptan-2-yl)-6-(2-hydroxy-2-methylpropoxy)pyrazolo[1,5-a]pyridine-3-carboxamide] | 0.005 to 0.05
CN(C)CCCc1ccc(C(N)=O)c(OC2CC3(CC(NC(=O)c4cnn5c(C6CC6)c(OCC(C)(C)O)ccc45)C3)C2)c1 (stereo not drawn) [Example 263, N-(6-(2-carbamoyl-5-(3-(dimethylamino)propyl)phenoxy)spiro[3.3]heptan-2-yl)-7-cyclopropyl-6-(2-hydroxy-2-methylpropoxy)pyrazolo[1,5-a]pyridine-3-carboxamide] | 0.005 to 0.05
CC(C)(O)COc1ccc2c(C(=O)NC3CC4(C3)CC(Oc3cc(N5CCCC5)ccc3C(N)=O)C4)cnn2c1 (stereo not drawn) [Example 227, N-(6-(2-carbamoyl-5-(pyrrolidin-1-yl)phenoxy)spiro[3.3]heptan-2-yl)-6-(2-hydroxy-2-methylpropoxy)pyrazolo[1,5-a]pyridine-3-carboxamide] | 0.005 to 0.05
[H][C@]1(Oc2ncccc2C(N)=O)C[C@@]2(C[C@H](NC(=O)c3nn(C(C)(C)C(N)=O)c4cc(-c5cnn(C)c5)ccc34)C2)C1 (stereo partly drawn) [Example 408, 1-(1-amino-2-methyl-1-oxopropan-2-yl)-N-((aR)-6-((3-carbamoylpyridin-2-yl)oxy)spiro[3.3]heptan-2-yl)-6-(1-methyl-1H-pyrazol-4-yl)-1H-indazole-3-carboxamide, TFA] | 0.005 to 0.05
COc1cc(C(=O)NC2CC3(C2)CC(Oc2ccccc2C(N)=O)C3)ccc1-c1cn[nH]c1 (stereo not drawn) [Example 5, N-(6-(2-carbamoylphenoxy)spiro[3.3]heptan-2-yl)-3-methoxy-4-(1H-pyrazol-4-yl)benzamide] | 0.05 to 0.25
Cc1nc(-c2ccccc2)sc1C(=O)N[C@H]1CC2(C1)C[C@H](Oc1ncccc1C(N)=O)C2 (stereo partly drawn) [Example 96, N-((aR)-6-((3-carbamoylpyridin-2-yl)oxy)spiro[3.3]heptan-2-yl)-4-methyl-2-phenylthiazole-5-carboxamide, trifluoroacetate] | 0.05 to 0.25
Cn1cc(-c2c(OCC(C)(C)O)ccc3c(C(=O)N[C@H]4CC5(C4)C[C@H](Oc4ncccc4C(N)=O)C5)cnn23)cn1 (stereo partly drawn) [Example 101, N-((aR)-6-((3-carbamoylpyridin-2-yl)oxy)spiro[3.3]heptan-2-yl)-6-(2-hydroxy-2-methylpropoxy)-7-(1-methyl-1H-pyrazol-4-yl)pyrazolo[1,5-a]pyridine-3-carboxamide, trifluoroacetate] | 0.005 to 0.05
CC(C)(O)COc1ccc2c(C(=O)NC3CC4(C3)CC(Oc3cc(-c5cccnc5)ccc3C(N)=O)C4)cnn2c1 (stereo not drawn) [Example 256, N-(6-(2-carbamoyl-5-(pyridin-3-yl)phenoxy)spiro[3.3]heptan-2-yl)-6-(2-hydroxy-2-methylpropoxy)pyrazolo[1,5-a]pyridine-3-carboxamide] | 0.005 to 0.05
NC(=O)c1cccnc1O[C@H]1CC2(C[C@H](NC(=O)c3csc(-c4ccccn4)n3)C2)C1 (stereo partly drawn) [Example 130, N-((aR)-6-((3-carbamoylpyridin-2-yl)oxy)spiro [3.3]heptan-2-yl)-2-(pyridin-2-yl)thiazole-4-carboxamide, bis-trifluoroacetate] | 0.25 to 2.5
[H][C@]1(Oc2ncccc2C(N)=O)C[C@@]2(C[C@H](NC(=O)c3cn4nc(OCC(F)(F)F)ccc4n3)C2)C1 (stereo partly drawn) [Example 61, N-((aR)-6-((3-carbamoylpyridin-2-yl)oxy)spiro[3.3]heptan-2-yl)-6-(2,2,2-trifluoroethoxy)imidazo[1,2-b]pyridazine-2-carboxamide] | 0.05 to 0.25
Cc1nc(-c2ccccn2)sc1C(=O)N[C@H]1CC2(C1)C[C@H](Oc1ncccc1C(N)=O)C2 (stereo partly drawn) [Example 88, N-((aR)-6-((3-carbamoyl-pyridin-2-yl)oxy)spiro[3.3]heptan-2-yl)-4-methyl-2-(pyridin-2-yl)thiazole-5-carboxamide, trifluoroacetate] | 0.25 to 2.5
NC(=O)c1cccnc1O[C@H]1CC2(C[C@H](NC(=O)c3cnn4cc(N5CC(CO)(CO)C5)ccc34)C2)C1 (stereo partly drawn) [Example 355] | 0.05 to 0.25
COc1ccc2c(C(=O)N[C@H]3CC4(C3)C[C@H](Oc3ncccc3C(N)=O)C4)cnn2c1CCC(F)(F)F (stereo partly drawn) [Example 99, N-((aR)-6-((3-carbamoylpyridin-2-yl)oxy)spiro[3.3]heptan-2-yl)-6-methoxy-7-(3,3,3-trifluoropropyl) pyrazolo[1,5-a]pyridine-3-carboxamide, trifluoroacetate] | 0.005 to 0.05
[H][C@]1(Oc2ncccc2C(N)=O)C[C@@]2(C[C@H](NC(=O)c3cc(C#N)cc(-c4nc5c(s4)CNCC5)c3)C2)C1 (stereo partly drawn) [Example 199, 2-(((aR)-6-(3-cyano-5-(4,5,6,7-tetrahydrothiazolo[5,4-c]pyridin-2-yl)benzamido)spiro[3.3]heptan-2-yl)oxy)nicotinamide, 2TFA] | 0.005 to 0.05
CC(C)(O)COc1ccc2c(C(=O)N[C@H]3CC4(C3)C[C@H](Oc3ccccc3C(N)=O)C4)cnn2c1CCC(F)(F)F (stereo partly drawn) [Example 19, N-[(aR)-6-(2-carbamoylphenoxy)spiro[3.3]heptan-2-yl]-6-(2-hydroxy-2-methylpropoxy)-7-(3,3,3-trifluoropropyl)pyrazolo [1,5-a]pyridine-3-carboxamide] | < 0.005
CC(C)(O)COc1ccc2c(C(=O)NC3CC4(C3)CC(Oc3cc(-c5cccc(C#N)c5)ccc3C(N)=O)C4)cnn2c1 (stereo not drawn) [Example 244, N-(6-((4-carbamoyl-3′-cyano-[1,1′-biphenyl]-3-yl)oxy)spiro[3.3]heptan-2-yl)-6-(2-hydroxy-2-methylpropoxy)pyrazolo[1,5-a]pyridine-3-carboxamide] | < 0.005
NC(=O)c1cccnc1O[C@H]1CC2(C[C@H](NC(=O)c3cc4ccccc4cn3)C2)C1 (stereo partly drawn) [Example 159, N-((aR)-6-((3-carbamoylpyridin-2-yl)oxy)spiro[3.3]heptan-2-yl)isoquinoline-3-carboxamide] | 0.05 to 0.25

Same assay, conditions: read-out: ROCK2 Activity (ROCK2 IC50); 5 μM ATP, 1.5 μM peptide substrate, pH 7.5

Compound | IC50 [µM]
NC(=O)c1cccnc1OC1CC2(CC(NC(=O)c3cnn4c(C5CC5)c(OCC5(O)CCC5)ccc34)C2)C1 [Example 462, N-((aR)-6-((3-carbamoylpyridin-2-yl)oxy)spiro[3.3]heptan-2-yl)-7-cyclopropyl-6-((1-hydroxycyclobutyl)methoxy)pyrazolo[1,5-a]pyridine-3-carboxamide, TFA] | < 0.005
Cc1ncc(-c2cc(C(=O)NC3CC4(C3)CC(Oc3ncccc3C(N)=O)C4)cc(C(F)(F)F)c2)s1 [Example 446, 2-(((aR)-6-(3-(2-methylthiazol-5-yl)-5-(trifluoromethyl)benzamido)spiro[3.3]heptan-2-yl)oxy)nicotinamide] | < 0.005
2-(((aR)-6-(3-cyano- 5-(1-methyl- 1H-pyrazol-4- yl)benzamido) spiro[3.3]heptan-2- yl)oxy)nicotinamide [Example 195] | < 0.005
NC(=O)c1cccnc1OC1CC2(CC(NC(=O)c3nc(C(F)(F)F)n4ccccc34)C2)C1 [Example 430, N-((aR)-6-((3-carbamoylpyridin-2-yl)oxy)spiro[3.3]heptan-2-yl)-3-(trifluoromethyl)imidazo[1,5-a]pyridine-1-carboxamide] | 0.005 to 0.05
CC(C)(O)CCOc1ccc2c(C(=O)NC3CC4(C3)CC(Oc3ncccc3C(N)=O)C4)nc(C(F)F)n2c1 [Example 441, N-((aR)-6-((3-carbamoylpyridin-2-yl)oxy)spiro[3.3]heptan-2-yl)-3-(difluoromethyl)-6-(3-hydroxy-3-methylbutoxy)imidazo[1,5-a]pyridine-1-carboxamide] | < 0.005
